# Test results: patent publication US20130338106A1, “COMPOUNDS INHIBITING LEUCINE-RICH REPEAT KINASE ENZYME ACTIVITY” (priority 2011, published 2013)
# Legend:
# Type in all cases: biochemical
# Settings in all cases: tested at 10 uM, read-out: percent inhibition of the kinase activity
# SRM = target: T1, SRM (Homo sapiens, UniProt Q9H3Y6); assay: ProfilerPro Kinase Selectivity, SRM
# T1 construct: purchased Caliper LifeSciences
# Protocol: (§1) Kinome selectivity profiling was performed using two example compounds according to the manufacturer's instructions using Caliper LifeSciences' ProfilerPro Kinase Selectivity Assay Kits. Compounds prepared in Examples 1 and 7 were tested at 10 uM and data were recorded using the Caliper LabChip® EZ Reader™. Each compounds' percent inhibition of the kinase activity measured in this manner is reported in the following lists.
# BMX = target: T2, BMX (Homo sapiens, UniProt P51813); assay: ProfilerPro Kinase Selectivity, BMX
# T2 construct: purchased Caliper LifeSciences
# Protocol: as §1
# CK1E = target: T3, CK1E (Homo sapiens, UniProt P49674); assay: ProfilerPro Kinase Selectivity, CK1E
# T3 construct: purchased Caliper LifeSciences
# Protocol: as §1
# P38A = target: T4, P38A (Homo sapiens, UniProt Q16539); assay: ProfilerPro Kinase Selectivity, P38A
# T4 construct: purchased Caliper LifeSciences
# Protocol: as §1
# AURB = target: T5, AURB (Homo sapiens, UniProt Q96GD4); assay: ProfilerPro Kinase Selectivity, AURB
# T5 construct: purchased Caliper LifeSciences
# Protocol: as §1
# ABL1 E255K = target: T6, ABL1 E255K (Homo sapiens, UniProt P00519, E255K); assay: ProfilerPro Kinase Selectivity, ABL1 E255K
# T6 construct: purchased Caliper LifeSciences
# Protocol: as §1
# DCAMKL2 = target: T7, DCAMKL2 (Homo sapiens, UniProt Q8N568); assay: ProfilerPro Kinase Selectivity, DCAMKL2
# T7 construct: purchased Caliper LifeSciences
# Protocol: as §1
# GSK3B = target: T8, GSK3B (Homo sapiens, UniProt P49841); assay: ProfilerPro Kinase Selectivity, GSK3B
# T8 construct: purchased Caliper LifeSciences
# Protocol: as §1
# PRKCA = target: T9, PRKCA (Homo sapiens, UniProt P17252); assay: ProfilerPro Kinase Selectivity, PRKCA
# T9 construct: purchased Caliper LifeSciences
# Protocol: as §1
# ABL Q252H = target: T10, ABL Q252H (Homo sapiens, UniProt P00519, Q252H); assay: ProfilerPro Kinase Selectivity, ABL Q252H
# T10 construct: purchased Caliper LifeSciences
# Protocol: as §1
# DAPK1 = target: T11, DAPK1 (Homo sapiens, UniProt P53355); assay: ProfilerPro Kinase Selectivity, DAPK1
# T11 construct: purchased Caliper LifeSciences
# Protocol: as §1
# DYRK1A = target: T12, DYRK1A (Homo sapiens, UniProt Q13627); assay: ProfilerPro Kinase Selectivity, DYRK1A
# T12 construct: purchased Caliper LifeSciences
# Protocol: as §1
# ABL = target: T13, ABL (Homo sapiens, UniProt P00519); assay: ProfilerPro Kinase Selectivity, ABL
# T13 construct: purchased Caliper LifeSciences
# Protocol: as §1
# BRSK2 = target: T14, BRSK2 (Homo sapiens, UniProt Q8IWQ3); assay: ProfilerPro Kinase Selectivity, BRSK2
# T14 construct: purchased Caliper LifeSciences
# Protocol: as §1
# PIM1 = target: T15, PIM1 (Homo sapiens, UniProt P11309); assay: ProfilerPro Kinase Selectivity, PIM1
# T15 construct: purchased Caliper LifeSciences
# Protocol: as §1
# P70S6K = target: T16, P70S6K (Homo sapiens, UniProt P23443); assay: ProfilerPro Kinase Selectivity, P70S6K
# T16 construct: purchased Caliper LifeSciences
# Protocol: as §1
# PRKCB1 = target: T17, PRKCB1 (Homo sapiens, UniProt P05771); assay: ProfilerPro Kinase Selectivity, PRKCB1
# T17 construct: purchased Caliper LifeSciences
# Protocol: as §1
# PRKCG = target: T18, PRKCG (Homo sapiens, UniProt P05129); assay: ProfilerPro Kinase Selectivity, PRKCG
# T18 construct: purchased Caliper LifeSciences
# Protocol: as §1
# LYNB = target: T19, LYNB (Homo sapiens, UniProt P07948); assay: ProfilerPro Kinase Selectivity, LYNB
# T19 construct: purchased Caliper LifeSciences
# Protocol: as §1
# NEK1 = target: T20, NEK1 (Homo sapiens, UniProt Q96PY6); assay: ProfilerPro Kinase Selectivity, NEK1
# T20 construct: purchased Caliper LifeSciences
# Protocol: as §1
# DCAMKL1 = target: T21, DCAMKL1 (Homo sapiens, UniProt O15075); assay: ProfilerPro Kinase Selectivity, DCAMKL1
# T21 construct: purchased Caliper LifeSciences
# Protocol: as §1
# MELK = target: T22, MELK (Homo sapiens, UniProt Q14680); assay: ProfilerPro Kinase Selectivity, MELK
# T22 construct: purchased Caliper LifeSciences
# Protocol: as §1
# KIT T670I = target: T23, KIT T670I (Homo sapiens, UniProt P10721, T670I); assay: ProfilerPro Kinase Selectivity, KIT T670I
# T23 construct: purchased Caliper LifeSciences
# Protocol: as §1
# C-TAK1 = target: T24, C-TAK1 (Homo sapiens, UniProt P27448); assay: ProfilerPro Kinase Selectivity, C-TAK1
# T24 construct: purchased Caliper LifeSciences
# Protocol: as §1
# KIT = target: T25, KIT (Homo sapiens, UniProt P10721); assay: ProfilerPro Kinase Selectivity, KIT
# T25 construct: purchased Caliper LifeSciences
# Protocol: as §1
# RSK3 = target: T26, RSK3 (Homo sapiens, UniProt Q15349); assay: ProfilerPro Kinase Selectivity, RSK3
# T26 construct: purchased Caliper LifeSciences
# Protocol: as §1
# RET V804L = target: T27, RET V804L (Homo sapiens, UniProt P07949, V804L); assay: ProfilerPro Kinase Selectivity, RET V804L
# T27 construct: purchased Caliper LifeSciences
# Protocol: as §1
# DDR2 = target: T28, DDR2 (Homo sapiens, UniProt Q16832); assay: ProfilerPro Kinase Selectivity, DDR2
# T28 construct: purchased Caliper LifeSciences
# Protocol: as §1
# RAF-1 = target: T29, RAF-1 (Homo sapiens, UniProt P04049); assay: ProfilerPro Kinase Selectivity, RAF-1
# T29 construct: purchased Caliper LifeSciences
# Protocol: as §1
# FES = target: T30, FES (Homo sapiens, UniProt P07332); assay: ProfilerPro Kinase Selectivity, FES
# T30 construct: purchased Caliper LifeSciences
# Protocol: as §1
# PRKCD = target: T31, PRKCD (Homo sapiens, UniProt Q05655); assay: ProfilerPro Kinase Selectivity, PRKCD
# T31 construct: purchased Caliper LifeSciences
# Protocol: as §1
# FGFR2 N549H = target: T32, FGFR2 N549H (Homo sapiens, UniProt P21802, N549H); assay: ProfilerPro Kinase Selectivity, FGFR2 N549H
# T32 construct: purchased Caliper LifeSciences
# Protocol: as §1
# ROS = target: T33, ROS (Homo sapiens, UniProt P08922); assay: ProfilerPro Kinase Selectivity, ROS
# T33 construct: purchased Caliper LifeSciences
# Protocol: as §1
# FGFR2 = target: T34, FGFR2 (Homo sapiens, UniProt P21802); assay: ProfilerPro Kinase Selectivity, FGFR2
# T34 construct: purchased Caliper LifeSciences
# Protocol: as §1
# IGF1R = target: T35, IGF1R (Homo sapiens, UniProt P08069); assay: ProfilerPro Kinase Selectivity, IGF1R
# T35 construct: purchased Caliper LifeSciences
# Protocol: as §1
# EPHA4 = target: T36, EPHA4 (Homo sapiens, UniProt P54764); assay: ProfilerPro Kinase Selectivity, EPHA4
# T36 construct: purchased Caliper LifeSciences
# Protocol: as §1
# DYRK1B = target: T37, DYRK1B (Homo sapiens, UniProt Q9Y463); assay: ProfilerPro Kinase Selectivity, DYRK1B
# T37 construct: purchased Caliper LifeSciences
# Protocol: as §1
# PIM-3 = target: T38, PIM-3 (Homo sapiens, UniProt Q86V86); assay: ProfilerPro Kinase Selectivity, PIM-3
# T38 construct: purchased Caliper LifeSciences
# Protocol: as §1
# T7 sequence (Q8N568 whole entry, species assumed): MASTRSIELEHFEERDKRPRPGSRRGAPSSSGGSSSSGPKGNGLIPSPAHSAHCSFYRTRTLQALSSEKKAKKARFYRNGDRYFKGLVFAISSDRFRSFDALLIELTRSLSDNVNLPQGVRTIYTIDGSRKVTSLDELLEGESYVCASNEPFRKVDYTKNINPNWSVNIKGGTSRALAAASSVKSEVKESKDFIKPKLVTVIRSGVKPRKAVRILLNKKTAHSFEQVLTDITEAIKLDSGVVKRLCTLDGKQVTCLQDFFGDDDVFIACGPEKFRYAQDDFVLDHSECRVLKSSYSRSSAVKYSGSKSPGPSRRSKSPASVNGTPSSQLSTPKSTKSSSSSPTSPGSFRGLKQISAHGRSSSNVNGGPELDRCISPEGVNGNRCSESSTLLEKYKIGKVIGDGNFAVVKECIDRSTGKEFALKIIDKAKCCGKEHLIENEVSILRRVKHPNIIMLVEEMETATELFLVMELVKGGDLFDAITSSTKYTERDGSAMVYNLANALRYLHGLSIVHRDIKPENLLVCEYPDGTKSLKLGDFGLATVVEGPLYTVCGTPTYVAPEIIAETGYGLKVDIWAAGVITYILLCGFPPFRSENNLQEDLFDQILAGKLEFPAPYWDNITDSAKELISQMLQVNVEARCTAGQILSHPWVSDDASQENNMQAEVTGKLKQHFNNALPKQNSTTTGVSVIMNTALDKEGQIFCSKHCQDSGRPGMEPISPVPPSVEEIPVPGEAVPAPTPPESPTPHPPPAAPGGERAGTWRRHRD
# T23 sequence (P10721 26-976 T670I): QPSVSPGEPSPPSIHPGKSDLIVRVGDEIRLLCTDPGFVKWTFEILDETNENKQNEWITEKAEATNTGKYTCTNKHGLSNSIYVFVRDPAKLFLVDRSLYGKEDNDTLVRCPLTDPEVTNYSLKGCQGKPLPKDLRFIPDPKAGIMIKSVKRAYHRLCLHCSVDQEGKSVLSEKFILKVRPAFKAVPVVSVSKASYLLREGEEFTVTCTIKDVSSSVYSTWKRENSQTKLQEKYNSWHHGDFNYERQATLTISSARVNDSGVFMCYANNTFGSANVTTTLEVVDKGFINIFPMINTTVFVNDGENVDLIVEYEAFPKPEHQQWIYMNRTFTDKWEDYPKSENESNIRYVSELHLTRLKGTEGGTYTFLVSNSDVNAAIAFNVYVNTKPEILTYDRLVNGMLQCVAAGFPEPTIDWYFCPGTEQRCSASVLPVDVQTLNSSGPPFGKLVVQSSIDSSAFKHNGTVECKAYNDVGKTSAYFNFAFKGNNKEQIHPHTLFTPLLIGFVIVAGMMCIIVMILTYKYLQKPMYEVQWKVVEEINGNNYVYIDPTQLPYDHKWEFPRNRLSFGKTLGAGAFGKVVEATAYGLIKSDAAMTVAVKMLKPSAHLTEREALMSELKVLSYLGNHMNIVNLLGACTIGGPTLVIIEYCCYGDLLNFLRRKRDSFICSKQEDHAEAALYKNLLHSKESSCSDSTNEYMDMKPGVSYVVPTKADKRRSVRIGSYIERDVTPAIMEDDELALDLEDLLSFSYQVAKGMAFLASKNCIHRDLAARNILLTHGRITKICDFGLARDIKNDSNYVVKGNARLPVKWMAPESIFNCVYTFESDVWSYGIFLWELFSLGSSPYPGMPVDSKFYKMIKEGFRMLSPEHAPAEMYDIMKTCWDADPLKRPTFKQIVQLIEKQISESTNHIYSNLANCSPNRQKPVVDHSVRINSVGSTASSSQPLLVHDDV
# T35 sequence (P08069 31-1367, species assumed): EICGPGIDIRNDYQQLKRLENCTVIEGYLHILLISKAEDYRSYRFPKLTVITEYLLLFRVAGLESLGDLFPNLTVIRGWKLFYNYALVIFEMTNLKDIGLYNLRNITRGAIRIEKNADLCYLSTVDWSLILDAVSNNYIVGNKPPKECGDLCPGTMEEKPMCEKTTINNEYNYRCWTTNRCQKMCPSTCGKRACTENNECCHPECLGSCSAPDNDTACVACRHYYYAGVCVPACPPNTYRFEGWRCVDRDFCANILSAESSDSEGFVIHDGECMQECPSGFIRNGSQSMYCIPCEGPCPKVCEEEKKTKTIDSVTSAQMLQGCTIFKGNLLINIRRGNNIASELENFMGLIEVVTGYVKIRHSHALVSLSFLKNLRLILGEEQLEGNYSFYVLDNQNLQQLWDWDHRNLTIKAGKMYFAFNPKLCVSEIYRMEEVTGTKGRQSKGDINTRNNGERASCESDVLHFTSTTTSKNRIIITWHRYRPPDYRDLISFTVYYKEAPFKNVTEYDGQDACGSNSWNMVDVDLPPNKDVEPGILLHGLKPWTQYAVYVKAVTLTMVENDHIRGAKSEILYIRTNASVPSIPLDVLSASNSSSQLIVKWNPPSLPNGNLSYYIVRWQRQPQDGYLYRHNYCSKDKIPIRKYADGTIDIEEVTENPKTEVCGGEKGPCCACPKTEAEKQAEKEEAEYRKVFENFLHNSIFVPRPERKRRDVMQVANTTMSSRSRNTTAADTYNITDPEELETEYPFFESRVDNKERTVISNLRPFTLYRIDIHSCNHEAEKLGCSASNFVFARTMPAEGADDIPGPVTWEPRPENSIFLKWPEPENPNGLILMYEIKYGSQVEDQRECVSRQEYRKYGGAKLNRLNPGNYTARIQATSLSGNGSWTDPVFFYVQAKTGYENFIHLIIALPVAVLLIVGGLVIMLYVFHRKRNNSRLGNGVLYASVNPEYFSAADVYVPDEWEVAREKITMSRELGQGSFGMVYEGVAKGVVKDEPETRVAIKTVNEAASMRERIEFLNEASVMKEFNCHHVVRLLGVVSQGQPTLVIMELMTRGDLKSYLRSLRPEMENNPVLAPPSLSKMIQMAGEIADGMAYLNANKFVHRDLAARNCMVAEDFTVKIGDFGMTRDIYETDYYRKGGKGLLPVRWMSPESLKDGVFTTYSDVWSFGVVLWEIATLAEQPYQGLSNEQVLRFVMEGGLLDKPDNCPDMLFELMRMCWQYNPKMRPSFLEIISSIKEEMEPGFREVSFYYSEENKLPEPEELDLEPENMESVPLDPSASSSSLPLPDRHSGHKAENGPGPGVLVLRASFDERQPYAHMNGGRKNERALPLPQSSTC
# T32 sequence (P21802 22-821 N549H): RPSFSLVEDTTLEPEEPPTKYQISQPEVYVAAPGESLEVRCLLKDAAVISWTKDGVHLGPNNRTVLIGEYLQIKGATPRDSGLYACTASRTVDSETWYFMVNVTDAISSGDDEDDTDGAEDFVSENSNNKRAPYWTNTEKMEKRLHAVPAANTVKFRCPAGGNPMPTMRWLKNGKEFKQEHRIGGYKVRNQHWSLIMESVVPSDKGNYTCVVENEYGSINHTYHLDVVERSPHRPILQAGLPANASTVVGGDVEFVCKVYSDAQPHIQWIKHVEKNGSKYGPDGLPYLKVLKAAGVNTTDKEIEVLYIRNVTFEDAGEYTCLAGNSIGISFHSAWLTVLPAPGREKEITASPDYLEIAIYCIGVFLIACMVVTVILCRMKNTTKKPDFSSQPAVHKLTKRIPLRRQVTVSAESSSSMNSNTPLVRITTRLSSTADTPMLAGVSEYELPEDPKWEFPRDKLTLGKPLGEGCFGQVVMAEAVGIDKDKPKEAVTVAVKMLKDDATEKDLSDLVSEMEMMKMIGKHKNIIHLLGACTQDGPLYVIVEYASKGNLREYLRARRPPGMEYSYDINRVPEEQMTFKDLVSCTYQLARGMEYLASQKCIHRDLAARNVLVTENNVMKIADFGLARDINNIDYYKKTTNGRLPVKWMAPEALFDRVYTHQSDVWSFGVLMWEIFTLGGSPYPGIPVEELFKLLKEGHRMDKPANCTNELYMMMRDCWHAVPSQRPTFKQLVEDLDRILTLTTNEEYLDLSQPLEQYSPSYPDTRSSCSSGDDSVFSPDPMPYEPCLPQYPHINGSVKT
# T20 sequence (Q96PY6 whole entry, species assumed): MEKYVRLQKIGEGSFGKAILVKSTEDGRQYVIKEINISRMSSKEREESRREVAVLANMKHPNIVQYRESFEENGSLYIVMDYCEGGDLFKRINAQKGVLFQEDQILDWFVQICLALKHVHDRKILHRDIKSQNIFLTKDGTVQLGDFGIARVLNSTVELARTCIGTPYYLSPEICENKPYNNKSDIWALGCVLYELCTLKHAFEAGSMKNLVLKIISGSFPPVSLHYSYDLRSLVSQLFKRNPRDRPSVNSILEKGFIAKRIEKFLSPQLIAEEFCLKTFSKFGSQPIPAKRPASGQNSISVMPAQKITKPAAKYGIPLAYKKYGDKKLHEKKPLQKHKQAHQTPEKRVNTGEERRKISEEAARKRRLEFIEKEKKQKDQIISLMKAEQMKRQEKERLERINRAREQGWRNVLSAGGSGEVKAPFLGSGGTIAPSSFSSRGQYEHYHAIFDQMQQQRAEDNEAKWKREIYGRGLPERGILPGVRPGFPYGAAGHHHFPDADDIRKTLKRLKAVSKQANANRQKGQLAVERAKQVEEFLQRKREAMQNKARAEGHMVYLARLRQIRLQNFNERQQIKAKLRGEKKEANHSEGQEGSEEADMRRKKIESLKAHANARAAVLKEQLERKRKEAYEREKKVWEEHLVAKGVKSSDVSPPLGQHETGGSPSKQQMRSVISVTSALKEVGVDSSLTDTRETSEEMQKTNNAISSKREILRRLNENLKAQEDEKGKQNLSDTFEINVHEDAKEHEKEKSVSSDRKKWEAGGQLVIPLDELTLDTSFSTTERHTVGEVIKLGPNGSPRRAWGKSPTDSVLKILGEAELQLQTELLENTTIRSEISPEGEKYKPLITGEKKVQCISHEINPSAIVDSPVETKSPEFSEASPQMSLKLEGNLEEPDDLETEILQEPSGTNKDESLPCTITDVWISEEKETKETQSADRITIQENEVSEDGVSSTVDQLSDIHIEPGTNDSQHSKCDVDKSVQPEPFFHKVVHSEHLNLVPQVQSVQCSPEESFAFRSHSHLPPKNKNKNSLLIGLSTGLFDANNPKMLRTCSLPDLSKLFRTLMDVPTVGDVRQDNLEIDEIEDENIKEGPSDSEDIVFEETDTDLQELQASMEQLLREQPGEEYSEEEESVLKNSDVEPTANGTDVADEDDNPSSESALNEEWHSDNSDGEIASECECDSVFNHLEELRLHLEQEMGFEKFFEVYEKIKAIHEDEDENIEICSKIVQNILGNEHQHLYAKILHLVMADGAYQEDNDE
Compound,inhibition at 10 µM (SRM),inhibition at 10 µM (BMX),inhibition at 10 µM (CK1E),inhibition at 10 µM (P38A),inhibition at 10 µM (AURB),inhibition at 10 µM (ABL1 E255K),inhibition at 10 µM (DCAMKL2),inhibition at 10 µM (GSK3B),inhibition at 10 µM (PRKCA),inhibition at 10 µM (ABL Q252H),inhibition at 10 µM (DAPK1),inhibition at 10 µM (DYRK1A),inhibition at 10 µM (ABL),inhibition at 10 µM (BRSK2),inhibition at 10 µM (PIM1),inhibition at 10 µM (P70S6K),inhibition at 10 µM (PRKCB1),inhibition at 10 µM (PRKCG),inhibition at 10 µM (LYNB),inhibition at 10 µM (NEK1),further results
"CSc1sc(-c2cc[nH]n2)c2c1C(=O)CCC2 [Example 1, 3-(Methylsulfanyl)-1-(1H-pyrazol-3-yl)-6,7-dihydro-2-benzothiophen-4(5H)-one]",3.5%,-10.9%,10.9%,-2.3%,57.7%,2.8%,-0.8%,5.4%,2.6%,16.9%,7.2%,44%,12.7%,-1.7%,26.3%,5.7%,-5.1%,10%,8.2%,9.1%,inhibition at 10 µM (DCAMKL1): -2.5%; inhibition at 10 µM (MELK): 11%; inhibition at 10 µM (KIT T670I): 10.6%; inhibition at 10 µM (C-TAK1): 5.3%; inhibition at 10 µM (KIT): 19.2%; inhibition at 10 µM (RSK3): 9.4%; inhibition at 10 µM (RET V804L): 41.5%; inhibition at 10 µM (DDR2): 0.8%; inhibition at 10 µM (RAF-1): 3.1%; inhibition at 10 µM (FES): -2.8%; inhibition at 10 µM (PRKCD): -14.8%; inhibition at 10 µM (FGFR2 N549H): 1.4%; inhibition at 10 µM (ROS): 33.7%; inhibition at 10 µM (FGFR2): 4.9%; inhibition at 10 µM (IGF1R): 5.4%; inhibition at 10 µM (EPHA4): -0.8%; inhibition at 10 µM (DYRK1B): 40.2%; inhibition at 10 µM (PIM-3): 23.7%
"CC1(C)CC(=O)c2c(SC3CCCC3)sc(-c3cc[nH]n3)c2C1 [Example 7, 3-(Cyclopentylsulfanyl)-6,6-dimethyl-1-(1H-pyrazol-3-yl)-6,7-dihydro-2-benzothiophen-4(5H)-one]",3%,-30.7%,5.1%,0.6%,-3.1%,7.5%,-4.2%,0.5%,4.3%,3.9%,-2%,0%,1.9%,-11.1%,-16.3%,-4.8%,-3.9%,2.3%,-4.9%,1.4%,inhibition at 10 µM (DCAMKL1): -2.1%; inhibition at 10 µM (MELK): 7.3%; inhibition at 10 µM (KIT T670I): 3%; inhibition at 10 µM (C-TAK1): 4.7%; inhibition at 10 µM (KIT): -7.3%; inhibition at 10 µM (RSK3): 2%; inhibition at 10 µM (RET V804L): 15.7%; inhibition at 10 µM (DDR2): -3.9%; inhibition at 10 µM (RAF-1): -0.2%; inhibition at 10 µM (FES): -3.1%; inhibition at 10 µM (PRKCD): 12.6%; inhibition at 10 µM (FGFR2 N549H): -5.8%; inhibition at 10 µM (ROS): 42.7%; inhibition at 10 µM (FGFR2): 2.6%; inhibition at 10 µM (IGF1R): -3.7%; inhibition at 10 µM (EPHA4): -3.5%; inhibition at 10 µM (DYRK1B): 4.7%; inhibition at 10 µM (PIM-3): 8.2%
